What was measured:
[1] = tested on: Human immunodeficiency virus 1; experiment: Antiviral activity against Human immunodeficiency virus 1 infected in human MT4 cells; format: functional, organism-based; details: Human immunodeficiency virus 1, MT4
[2] = tested on: Human immunodeficiency virus 1; experiment: Antiviral activity against Human immunodeficiency virus 1 3B; format: functional, organism-based
[3] = Selectivity index, ratio of human MT4 cytotoxicity to inhibition of HIV1 cytopathicity; format: toxicity; details: MT4 cells, read-out: Selectivity Index
[4] = molecular target: Human immunodeficiency virus type 1 reverse transcriptase (Human immunodeficiency virus 1, UniProt Q72547, K103N); experiment: Inhibition of HIV1 reverse transcriptase K103N mutant
[5] = molecular target: T1, Human immunodeficiency virus type 1 reverse transcriptase (Human immunodeficiency virus 1, UniProt Q72547); experiment: Inhibition of wild-type HIV1 reverse transcriptase
[6] = molecular target: Human immunodeficiency virus type 1 reverse transcriptase (Human immunodeficiency virus 1, UniProt Q72547, Y181C); experiment: Inhibition of HIV1 reverse transcriptase Y181C mutant
[7] = molecular target: T1, Human immunodeficiency virus type 1 reverse transcriptase; experiment: Inhibition of HIV1 reverse transcriptase
[8] = tested on: Human immunodeficiency virus; experiment: Inhibition of wild-type HIV reverse transcriptase
[9] = tested on: Human immunodeficiency virus type 1 reverse transcriptase (Human immunodeficiency virus 1), Q72547 [K103N]; experiment: Inhibition of HIV reverse transcriptase K103N mutant

With `C=CCN1Cc2cccc3[nH]c(=O)n(c23)CC1C` (stereo not given) as the compound, how does the EC50 [1] read?
Its EC50 is 62000 nM.

For `CC1=C(C(=O)Nc2ccc(Cl)c(C(=O)OC(C)C)c2)SCCO1`, which EC50 [2] is on record?
The EC50 was 15 nM.

For `CC(C)=CCN1Cc2c(Cl)ccc3[nH]c(=S)n(c23)C[C@@H]1C` [TIVIRAPINE], which EC50 [1] is on record?
The EC50 was 4.3 nM.

Which results are given for `CC(=O)c1ccc(C)cc1NC(C(N)=O)c1c(Cl)cccc1Cl` (stereo not given) [LOVIRIDE]?
EC50 [1]: 13 nM; selectivity ratio [3]: 10000

With `COc1ccccc1NC(C(N)=O)c1c(Cl)cccc1Cl` (stereo not given) as the compound, how does the EC50 [1] read?
The EC50 was 610 nM.

What about the selectivity ratio [3] of the same compound?
The selectivity ratio was 10000.

For `Cc1cc(S(N)(=O)=O)ccc1NC(=O)COc1ccc(Cl)cc1C(=O)c1cc(F)cc(C(F)(F)F)c1`, which IC50 [4] is on record?
Its IC50 is less than 10 nM.

And the IC50 [5]?
The IC50 was less than 2 nM.

And the IC50 [6]?
Its IC50 is less than 10 nM.

For `CCN(CC)CCOc1ccc(NC(=O)COc2ccccc2C(=O)c2ccc(OC)cc2)cc1`, which IC50 [7] is on record?
Its IC50 is 21000 nM.

Which EC50 [2] does the source give for `CC(C)=CCOc1cc(NC(=S)c2ccsc2C)ccc1Cl` here?
The EC50 was 15 nM.

Which results are given for `CCC1(c2cccc(OC)c2)Oc2ccccc2-n2cccc2C1=O` (stereo not given)?
INH [8]: 0.05 µM; INH [9]: 0.022 µM

With `CC(C)=CCOc1cc(NC(=S)c2ccoc2C)ccc1Cl` [UC 781] as the compound, how does the EC50 [2] read?
The EC50 was 15 nM.
